Results taken from patent US20250346593A1, “IMIDAZO(1,2-1)PYRIDINE DERIVATIVES AS RIPK2 INHIBITORS” (Interline Therapeutics, Inc., priority 2022, published 2025).
Read-outs that look alike come from different tables or passages of the source. Values belong to the compound of their own block, whether it stands above or below them.

Key:
[1] = test system: NF-κB pathway (SEAP) in THP1-Dual cells; test: THP-1 Dual cell SEAP assay (L18-MDP stimulated); assay type: cell-based; conditions: read-out: NFkB THP1 IC50
[2] = target: GST-RIPK2 fusion protein (human RIPK2 amino acids 1-310) (Homo sapiens (Human), UniProt O43353); test: RIPK2 binding competition assay (TR-FRET, Tracer 199)
[3] = read-out: RIPK2 IC50, RIPK2 binding competition assay

Sequence of GST-RIPK2 fusion protein (human RIPK2 amino acids 1-310) (O43353 1-310): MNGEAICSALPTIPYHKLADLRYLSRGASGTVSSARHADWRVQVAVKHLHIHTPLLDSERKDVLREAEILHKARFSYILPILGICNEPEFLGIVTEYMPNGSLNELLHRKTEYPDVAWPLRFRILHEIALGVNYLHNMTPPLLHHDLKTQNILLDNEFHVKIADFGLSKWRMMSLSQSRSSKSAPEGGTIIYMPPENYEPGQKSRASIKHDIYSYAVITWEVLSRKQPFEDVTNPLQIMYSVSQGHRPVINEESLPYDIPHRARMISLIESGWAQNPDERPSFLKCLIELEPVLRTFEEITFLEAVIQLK

Compound: CNc1cc(-c2cnc3cc(OC)c(S(=O)(=O)C(C)(C)C)cn23)cc(F)n1 [Example 179, 4-(6-(tert-butylsulfonyl)-7-methoxyimidazo[1,2-a]pyridin-3-yl)-6-fluoro-N-methylpyridin-2-amine]
IC50 ([1]; Homo sapiens, THP1-Dual): < 50 nM
IC50 [2, 3]: < 1 nM

Compound: COc1cc2ncc(-c3cc(F)nc(NC4CCC4)c3)n2cc1S(=O)(=O)C(C)(C)C [Example 180, 4-(6-(tert-butylsulfonyl)-7-methoxyimidazo[1,2-a]pyridin-3-yl)-N-cyclobutyl-6-fluoropyridin-2-amine]
IC50 ([1]; Homo sapiens, THP1-Dual): 50 to 250 nM
IC50 [2, 3]: < 1 nM

Compound: CCCNc1cc(-c2cnc3cc(OC)c(S(=O)(=O)C(C)(C)C)cn23)cc(F)n1 [Example 181, 4-(6-(tert-butylsulfonyl)-7-methoxyimidazo[1,2-a]pyridin-3-yl)-6-fluoro-N-propylpyridin-2-amine]
IC50 ([1]; Homo sapiens, THP1-Dual): < 50 nM
IC50 [2, 3]: < 1 nM

Compound: COc1cc2ncc(-c3cc(F)nc(NCCCC(C)(C)O)c3)n2cc1S(=O)(=O)C(C)(C)C [Example 182, 5-((4-(6-(tert-butylsulfonyl)-7-methoxyimidazo[1,2-a]pyridin-3-yl)-6-fluoropyridin-2-yl)amino)-2-methylpentan-2-ol]
IC50 ([1]; Homo sapiens, THP1-Dual): < 50 nM
IC50 [2, 3]: < 1 nM

Compound: COc1cc2ncc(-c3cc(F)nc(NCCCO)c3)n2cc1S(=O)(=O)C(C)(C)C [Example 183, 3-((4-(6-(tert-butylsulfonyl)-7-methoxyimidazo[1,2-a]pyridin-3-yl)-6-fluoropyridin-2-yl)amino)propan-1-ol]
IC50 ([1]; Homo sapiens, THP1-Dual): < 50 nM
IC50 [2, 3]: < 1 nM

Compound: COc1cc2ncc(-c3cc(F)nc(NCc4ccc(=O)[nH]c4)c3)n2cc1S(=O)(=O)C(C)(C)C [Example 184, 5-(((4-(6-(tert-butylsulfonyl)-7-methoxyimidazo[1,2-a]pyridin-3-yl)-6-fluoropyridin-2-yl)amino)methyl) pyridin-2(1H)-one]
IC50 ([1]; Homo sapiens, THP1-Dual): 50 to 250 nM
IC50 [2, 3]: < 1 nM

Compound: COc1cc2ncc(-c3cc(F)nc(NCC4CCC(=O)NC4)c3)n2cc1S(=O)(=O)C(C)(C)C (stereo not drawn) [Example 185, 5-(((4-(6-(tert-butylsulfonyl)-7-methoxyimidazo[1,2-a]pyridin-3-yl)-6-fluoropyridin-2-yl)amino)methyl) piperidin-2-one]
IC50 ([1]; Homo sapiens, THP1-Dual): < 50 nM
IC50 [2, 3]: < 1 nM

Compound: COc1cc2ncc(-c3cc(F)nc(N(C)C)c3)n2cc1S(=O)(=O)C(C)(C)C [Example 186, 4-(6-(tert-butylsulfonyl)-7-methoxyimidazo[1,2-a]pyridin-3-yl)-6-fluoro-N,N-dimethylpyridin-2-amine]
IC50 ([1]; Homo sapiens, THP1-Dual): < 50 nM
IC50 [2, 3]: < 1 nM

IC50 ([1]; Homo sapiens, THP1-Dual): < 50 nM
IC50 [2, 3]: < 1 nM
Compound: COc1cc2ncc(-c3cc(F)nc(NCC4CCNC(=O)C4)c3)n2cc1S(=O)(=O)C(C)(C)C (stereo not drawn) [Example 188, 4-(((4-(6-(tert-butylsulfonyl)-7-methoxyimidazo[1,2-a]pyridin-3-yl)-6-fluoropyridin-2-yl)amino)methyl) piperidin-2-one]

Compound: COc1cc2ncc(-c3cc(F)nc(N[C@H]4C[C@H](O)C4)c3)n2cc1S(=O)(=O)C(C)(C)C [Example 193, (1r,3r)-3-((4-(6-(tert-butylsulfonyl)-7-methoxyimidazo[1,2-a]pyridin-3-yl)-6-fluoropyridin-2-yl)amino)cyclobutan-1-ol]
IC50 ([1]; Homo sapiens, THP1-Dual): < 50 nM
IC50 [2, 3]: < 1 nM

Compound: COc1cc2ncc(-c3cc(F)nc(NCCCN)c3)n2cc1S(=O)(=O)C(C)(C)C [Example 194, N1-(4-(6-(tert-butylsulfonyl)-7-methoxyimidazo[1,2-a]pyridin-3-yl)-6-fluoropyridin-2-yl)propane-1,3-diamine]
IC50 ([1]; Homo sapiens, THP1-Dual): < 50 nM
IC50 [2, 3]: < 1 nM

Compound: COc1cc2ncc(-c3cc(F)nc(NC[C@@H](O)CO)c3)n2cc1S(=O)(=O)C(C)(C)C [Example 195, (R)-3-((4-(6-(tert-butylsulfonyl)-7-methoxyimidazo[1,2-a]pyridin-3-yl)-6-fluoropyridin-2-yl)amino)propane-1,2-diol]
IC50 ([1]; Homo sapiens, THP1-Dual): < 50 nM
IC50 [2, 3]: < 1 nM

Compound: COc1cc2ncc(-c3cc(F)nc(NCc4ccn(C)c(=O)c4)c3)n2cc1S(=O)(=O)C(C)(C)C [Example 196, 4-(((4-(6-(tert-butylsulfonyl)-7-methoxyimidazo[1,2-a]pyridin-3-yl)-6-fluoropyridin-2-yl)amino)methyl)-1-methylpyridin-2(1H)-one]
IC50 ([1]; Homo sapiens, THP1-Dual): < 50 nM
IC50 [2]: 1 to 2.5 nM

Compound: COc1cc2ncc(-c3cc(F)nc(NCCC4(O)CC4)c3)n2cc1S(=O)(=O)C(C)(C)C [Example 198, 1-(2-((4-(6-(tert-butylsulfonyl)-7-methoxyimidazo[1,2-a]pyridin-3-yl)-6-fluoropyridin-2-yl)amino)ethyl)cyclo-propan-1-ol]
IC50 ([1]; Homo sapiens, THP1-Dual): < 50 nM
IC50 [2, 3]: < 1 nM

Compound: COc1cc2ncc(-c3cc(F)nc(NCc4cc[nH]c(=O)c4)c3)n2cc1S(=O)(=O)C(C)(C)C [Example 199, 4-(((4-(6-(tert-butylsulfonyl)-7-methoxyimidazo[1,2-a]pyridin-3-yl)-6-fluoropyridin-2-yl)amino)methyl) pyridin-2(1H)-one]
IC50 ([1]; Homo sapiens, THP1-Dual): 50 to 250 nM
IC50 [2]: 1 to 2.5 nM

Compound: COc1cc2ncc(-c3cc(F)nc(NCC4CCN(C)C(=O)C4)c3)n2cc1S(=O)(=O)C(C)(C)C (stereo not drawn) [Example 200, 4-(((4-(6-(tert-butylsulfonyl)-7-methoxyimidazo[1,2-a]pyridin-3-yl)-6-fluoropyridin-2-yl)amino)methyl)-1-methylpiperidin-2-one]
IC50 ([1]; Homo sapiens, THP1-Dual): < 50 nM
IC50 [2]: 1 to 2.5 nM

Compound: COc1cc2ncc(-c3cc(F)nc(NCC4(CO)CC4)c3)n2cc1S(=O)(=O)C(C)(C)C [Example 201, (1-(((4-(6-(tert-butylsulfonyl)-7-methoxyimidazo[1,2-a]pyridin-3-yl)-6-fluoropyridin-2-yl)amino)methyl)cyclo-propyl)methanol]
IC50 ([1]; Homo sapiens, THP1-Dual): < 50 nM
IC50 [2]: 1 to 2.5 nM

Compound: COc1cc2ncc(-c3cc(F)nc(NCCO)c3)n2cc1S(=O)(=O)C(C)(C)C [Example 202, 2-((4-(6-(tert-butylsulfonyl)-7-methoxyimidazo[1,2-a]pyridin-3-yl)-6-fluoropyridin-2-yl)amino)ethan-1-ol]
IC50 ([1]; Homo sapiens, THP1-Dual): < 50 nM
IC50 [2]: 1 to 2.5 nM

Compound: COc1cc2ncc(-c3cc(F)nc(NC[C@H](O)CO)c3)n2cc1S(=O)(=O)C(C)(C)C [Example 203, (S)-3-((4-(6-(tert-butylsulfonyl)-7-methoxyimidazo[1,2-a]pyridin-3-yl)-6-fluoropyridin-2-yl)amino)propane-1,2-diol]
IC50 ([1]; Homo sapiens, THP1-Dual): 50 to 250 nM
IC50 [2]: 1 to 2.5 nM

IC50 [1]: < 50 nM
IC50 [2]: 1 to 2.5 nM
Compound: COc1cc2ncc(-c3cc(F)nc(N[C@H]4CC[C@@H](O)CC4)c3)n2cc1S(=O)(=O)C(C)(C)C [Example 206, (1s,4s)-4-((4-(6-(tert-butylsulfonyl)-7-methoxyimidazo[1,2-a]pyridin-3-yl)-6-fluoropyridin-2-yl)amino)cyclohexan-1-ol]

Compound: COc1cc2ncc(-c3cc(F)nc(N4CCC(O)CC4)c3)n2cc1S(=O)(=O)C(C)(C)C [Example 207, 1-(4-(6-(tert-butylsulfonyl)-7-methoxyimidazo[1,2-a]pyridin-3-yl)-6-fluoropyridin-2-yl)piperidin-4-ol]
IC50 ([1]; Homo sapiens, THP1-Dual): < 50 nM
IC50 [2]: 1 to 2.5 nM

Compound: COc1cc2ncc(-c3cc(F)nc(NCC4(O)CC4)c3)n2cc1S(=O)(=O)C(C)(C)C [Example 208, 1-(((4-(6-(tert-butylsulfonyl)-7-methoxyimidazo[1,2-a]pyridin-3-yl)-6-fluoropyridin-2-yl)amino)methyl) cyclopropan-1-ol]
IC50 ([1]; Homo sapiens, THP1-Dual): < 50 nM
IC50 [2]: 1 to 2.5 nM

Compound: COc1cc2ncc(-c3cc(F)nc(N(C)CCCO)c3)n2cc1S(=O)(=O)C(C)(C)C [Example 209, 3-((4-(6-(tert-butylsulfonyl)-7-methoxyimidazo[1,2-a]pyridin-3-yl)-6-fluoropyridin-2-yl)(methyl)amino) propan-1-ol]
IC50 ([1]; Homo sapiens, THP1-Dual): 50 to 250 nM
IC50 [2]: 1 to 2.5 nM

Compound: COc1cc2ncc(-c3cc(F)nc(NCCN4CCCC4=O)c3)n2cc1S(=O)(=O)C(C)(C)C [Example 210, 1-(2-((4-(6-(tert-butylsulfonyl)-7-methoxyimidazo[1,2-a]pyridin-3-yl)-6-fluoropyridin-2-yl)amino)ethyl) pyrrolidin-2-one]
IC50 ([1]; Homo sapiens, THP1-Dual): 50 to 250 nM
IC50 [2]: 1 to 2.5 nM

Compound: COc1cc2ncc(-c3cc(F)nc(N4CCOCC4)c3)n2cc1S(=O)(=O)C(C)(C)C [Example 211, 4-(4-(6-(tert-butylsulfonyl)-7-methoxyimidazo[1,2-a]pyridin-3-yl)-6-fluoropyridin-2-yl)morpholine]
IC50 ([1]; Homo sapiens, THP1-Dual): 250 to 1000 nM
IC50 [2]: 2.5 to 20 nM

Compound: COc1cc2ncc(-c3cc(F)nc(NC4CCOCC4)c3)n2cc1S(=O)(=O)C(C)(C)C [Example 212, 4-(6-(tert-butylsulfonyl)-7-methoxyimidazo[1,2-a]pyridin-3-yl)-6-fluoro-N-(tetrahydro-2H-pyran-4-yl)pyridin-2-amine]
IC50 ([1]; Homo sapiens, THP1-Dual): > 1000 nM
IC50 [2]: 2.5 to 20 nM

Compound: COc1cc2ncc(-c3cc(F)nc(NCCC4(O)COC4)c3)n2cc1S(=O)(=O)C(C)(C)C [Example 213, 3-(2-((4-(6-(tert-butylsulfonyl)-7-methoxyimidazo[1,2-a]pyridin-3-yl)-6-fluoropyridin-2-yl)amino)ethyl)oxetan-3-ol]
IC50 ([1]; Homo sapiens, THP1-Dual): 250 to 1000 nM
IC50 [2]: 2.5 to 20 nM

Compound: COc1cc2ncc(-c3cc(F)c(C#N)c(NCCCO)c3)n2cc1S(=O)(=O)C(C)(C)C [Example 214, 4-(6-(tert-butylsulfonyl)-7-methoxyimidazo[1,2-a]pyridin-3-yl)-2-fluoro-6-((3-hydroxypropyl)amino) benzonitrile]
IC50 ([1]; Homo sapiens, THP1-Dual): 50 to 250 nM
IC50 [2]: 2.5 to 20 nM

Compound: COc1cc2ncc(-c3cc(N)nc(F)c3)n2cc1S(=O)(=O)C(C)(C)C [Example 215, 4-(6-(tert-butylsulfonyl)-7-methoxyimidazo[1,2-a]pyridin-3-yl)-6-fluoropyridin-2-amine]
IC50 ([1]; Homo sapiens, THP1-Dual): < 50 nM
IC50 [2, 3]: < 1 nM

Compound: COc1ccc(CNc2cc(-c3cnc4cc(OC)c(S(=O)(=O)C(C)(C)C)cn34)cc(F)n2)cc1 [Example 216]
IC50 ([1]; Homo sapiens, THP1-Dual): 50 to 250 nM
IC50 [2, 3]: < 1 nM
